We go through 30 compounds from patent US20250163057A1, “DCN-1 MODULATING COMPOUNDS AND METHODS OF USE THEREOF” (Cellarity, Inc., priority 2023, published 2025).

In the assay the target is DCN1 (DCUND1) protein PONY domain (Homo sapiens (Human), UniProt Q96GG9). The experiment in a line: TR-FRET assay, DCN1 binding with FAM-labeled probe. An outline of the steps: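 First, the E. coli-derived PONY domain was biotinylated and paired with streptavidin Tb cryptate. Compounds in 0.1% DMSO were then added to DCN1 and FAM-probe (5 nM/20 nM, or 0.31 nM/900 nM total with 800 nM unlabelled) in TritonX, 200 mM NaCl buffer. Finally, TR-FRET ratios were recorded at 1, 5 and 24 hrs.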

Where [1] appears, read: 24 hr after treatment with compound, read-out: TR FRET IC50 24 hr.
Setting [2] is: TR FRET IC50 1 hr (nM), 1 hr after treatment with compound.

Structures are written as SMILES. Like-named read-outs stand apart in the source and are kept apart here.

Sequence of DCN1 (DCUND1) protein PONY domain (Q96GG9 60-248): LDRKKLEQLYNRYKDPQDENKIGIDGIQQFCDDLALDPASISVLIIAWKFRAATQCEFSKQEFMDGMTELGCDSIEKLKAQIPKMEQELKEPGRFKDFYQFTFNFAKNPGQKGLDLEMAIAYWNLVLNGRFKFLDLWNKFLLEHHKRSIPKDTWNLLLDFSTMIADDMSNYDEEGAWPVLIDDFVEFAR

As for `CCN1C(=O)[C@@H](NC(=O)c2cccc(C(F)(F)F)c2)[C@@H](c2ccc(F)cc2)c2c(CNC(=O)/C=C/C(=O)NCCO)nn(-c3ccccc3)c21` (racemic) [Compound I-15, rac-N1-(((4R,5R)-7-ethyl-4-(4-fluorophenyl)-6-oxo-1-phenyl-5-(3-(trifluoromethyl)benzamido)-4,5,6,7-tetrahydro-1H-pyrazolo[3,4-b]pyridine-3-yl)methyl)-N4-(2-hydroxyethyl)fumaramide], the IC50 runs as follows: under setting [1], 1000 to 3000 nM; under setting [2], 1000 to 3000 nM.

With `CCN1C(=O)[C@@H](NC(=O)c2cccc(C(F)(F)F)c2)[C@@H](c2ccc(F)cc2)c2c(CNC(=O)C#CCN3CCOCC3)nn(-c3ccccc3)c21` (racemic) [Compound I-68, ˜{N}—[˜{rac}-(4˜{S},5˜{S})-7-ethyl-4-(4-fluorophenyl)-3-[(4-morpholinobut-2-ynoylamino)methyl]-6-oxo-1-phenyl-4,5-dihydropyrazolo[3,4-b]pyridine-5-yl]-3-(trifluoromethyl)benzamide], the IC50 runs as follows: under setting [1], 200 to 1000 nM; under setting [2], 200 to 1000 nM.

Turning to `C=C(COC)C(=O)NCc1nn(-c2ccccc2)c2c1[C@H](c1ccc(F)cc1)[C@H](NC(=O)c1cccc(C(F)(F)F)c1)C(=O)N2CC` [Compound I-113], the IC50 by setting is: under setting [1], 200 to 1000 nM; under setting [2], 200 to 1000 nM.

As to `CCN1C(=O)[C@H](NC(=O)c2cccc(C(F)(F)F)c2)[C@H](c2ccc(F)cc2)c2c(CNC(=O)C3=CCN(C)C3)nn(-c3ccccc3)c21` (racemic) [Compound I-86, rac-N-(((4R,5R)-7-ethyl-4-(4-fluorophenyl)-6-oxo-1-phenyl-5-(3-(trifluoromethyl)benzamido)-4,5,6,7-tetrahydro-1H-pyrazolo[3,4-b]pyridin-3-yl)methyl)-1-methyl-2,5-dihydro-1H-pyrrole-3-carboxamide], the IC50 reads like this: under setting [1], 200 to 1000 nM; under setting [2], 200 to 1000 nM.

For `CCN1C(=O)[C@@H](NC(=O)c2cccc(C(F)(F)F)c2)[C@@H](C2CC2)c2c(CN(C)C#N)nn(-c3ccccc3)c21` [Compound I-111], the IC50 under setting [1] was in the range of 200 to 1000 nM and the IC50 under setting [2] lay in the range of 1000 to 3000 nM.

Turning to `CCN1C(=O)[C@@H](NC(=O)c2cncc(C(F)(F)F)n2)[C@@H](C2CC2)c2c(C(=O)N3[C@H](C#N)C[C@H]4C[C@H]43)nn(C3CCOCC3)c21` [Compound I-590], the IC50 runs as follows: under setting [1], 1000 to 3000 nM; under setting [2], 1000 to 3000 nM.

In the case of `CCN1C(=O)[C@@H](NC(=O)c2cccc(C(F)(F)F)c2)[C@@H](c2ccc(F)cc2)c2c([C@@H](O)CNC#N)nn(-c3ccccc3)c21` [Compound I-130], the IC50 was 200 to 1000 nM under setting [1] and 200 to 1000 nM under setting [2].

For `CCN1C(=O)[C@@H](NC(=O)c2cccc(C(F)(F)F)c2)[C@@H](c2ccc(F)cc2)c2c(C/C=C/C(=O)NCCN(C)C)nn(-c3ccccc3)c21` [Compound I-118], the IC50 by setting is: under setting [1], 200 to 1000 nM; under setting [2], 200 to 1000 nM.

As for `C=C(CN1CC(F)(F)C1)C(=O)NCc1nn(-c2ccccc2)c2c1[C@H](c1ccc(F)cc1)[C@H](NC(=O)c1cccc(C(F)(F)F)c1)C(=O)N2CC` (racemic) [Compound I-95], the IC50 was in the range of 200 to 1000 nM under setting [1] and 200 to 1000 nM under setting [2].

`CCN1C(=O)[C@@H](NC(=O)Cc2cccc(C(F)(F)F)c2)[C@@H](C2CC2)c2c(C(=O)N3[C@H](C#N)C[C@H]4C[C@H]43)nn(C3CCOCC3)c21` [Compound I-592]: the IC50 lay within 1000 to 3000 nM under setting [1] and 1000 to 3000 nM under setting [2].

Take `CCN1C(=O)[C@H](NC(=O)c2cccc(C(F)(F)F)c2)[C@H](c2ccc(F)cc2)c2c([C@@H](C)N(C)C#N)nn(-c3ccccc3)c21` (relative stereo) [Compound I-79, N-((4R*,5R*)-7-ethyl-4-(4-fluorophenyl)-3-((R)-1-(N-methylcyanamido)ethyl)-6-oxo-1-phenyl-4,5,6,7-tetrahydro-1H-pyrazolo[3,4-b]pyridine-5-yl)-3-(trifluoromethyl)benzamide]: the IC50 is, setting by setting: under setting [1], 1000 to 3000 nM; under setting [2], 1000 to 3000 nM.

Take `C=C(Cc1nn(-c2ccccc2)c2c1[C@H](c1ccc(F)cc1)[C@H](NC(=O)c1cccc(C(F)(F)F)c1)C(=O)N2CC)C(N)=O` (racemic) [Compound I-105, rac-N-((4R,5R)-3-(2-carbamoylallyl)-7-ethyl-4-(4-fluorophenyl)-6-oxo-1-phenyl-4,5,6,7-tetrahydro-1H-pyrazolo[3,4-b]pyridin-5-yl)-3-(trifluoromethyl)benzamide]: the IC50 reads like this: under setting [1], 200 to 1000 nM; under setting [2], 200 to 1000 nM.

Turning to `CCN1C(=O)[C@@H](NC(=O)C2CCN(C)CC2)[C@@H](C2CC2)c2c(C(=O)N3[C@H](C#N)C[C@H]4C[C@H]43)nn(C3CCOCC3)c21` [Compound I-423], the IC50 reads like this: under setting [1], 1000 to 3000 nM; under setting [2], 1000 to 3000 nM.

On to `CCN1C(=O)[C@@H](NC(=O)c2cccc(C(F)(F)F)c2)[C@@H](c2ccc(F)cc2)c2c(C/C=C/C(=O)NCCCO)nn(-c3ccccc3)c21` (racemic) [Compound I-24], for which the IC50 runs as follows: under setting [1], 1000 to 3000 nM; under setting [2], 1000 to 3000 nM.

`CCN1C(=O)[C@@H](NC(=O)c2cccc(C(F)(F)F)c2)[C@@H](c2ccc(F)cc2)c2c(NC(=O)C#CCN(C)C)nn(-c3ccccc3)c21` (racemic) [Compound I-93, rac-N-((4R,5R)-3-(4-(dimethylamino)but-2-ynamido)-7-ethyl-4-(4-fluorophenyl)-6-oxo-1-phenyl-4,5,6,7-tetrahydro-1H-pyrazolo[3,4-b]pyridine-5-yl)-3-(trifluoromethyl)benzamide]: the IC50 by setting is: under setting [1], no more than 200 nM; under setting [2], no more than 200 nM.

Turning to `CCN1C(=O)[C@@H](NC(=O)CCN2C(=O)COc3ccccc32)[C@@H](C2CC2)c2c(C(=O)N3[C@H](C#N)C[C@H]4C[C@H]43)nn(C3CCOCC3)c21` [Compound I-556], the IC50 runs as follows: under setting [1], 1000 to 3000 nM; under setting [2], 1000 to 3000 nM.

As to `CCN1C(=O)[C@@H](NC(=O)c2cccc(C(F)(F)F)c2)[C@@H](c2ccc(F)cc2)c2c([C@@H](C)N(C)C#N)nn(-c3ccccc3)c21` [Compound I-44], the IC50 is no more than 200 nM under setting [1] and 200 to 1000 nM under setting [2].

On to `CCN1C(=O)[C@@H](NC(=O)CN2C(=O)CSc3ccccc32)[C@@H](C2CC2)c2c(C(=O)N3[C@H](C#N)C[C@H]4C[C@H]43)nn(C3CCOCC3)c21` [Compound I-510], for which the IC50 under setting [1] fell in the range of 1000 to 3000 nM and the IC50 under setting [2] lay within 1000 to 3000 nM.

`CCN1C(=O)[C@@H](NC(=O)c2cccc(C(F)(F)F)c2)[C@@H](C2CC2)c2c(CNC#N)nn(-c3ccccc3)c21` (racemic) [Compound I-98]: the 50% inhibitory concentration (IC50) is no more than 200 nM under setting [1] and 200 to 1000 nM under setting [2].

Consider `CCN1C(=O)[C@@H](NC(=O)c2cccc(C(F)(F)F)c2)[C@@H](c2ccc(F)cc2)c2c(CC/C=C\C(N)=O)nn(-c3ccccc3)c21` (racemic) [Compound I-142], for which the IC50 reads like this: under setting [1], 200 to 1000 nM; under setting [2], 200 to 1000 nM.

On to `CCN1C(=O)[C@@H](CC(=O)CC2CC2)[C@@H](C2CC2)c2c(C(=O)N3[C@H](C#N)C[C@H]4C[C@H]43)nn(C3CCOCC3)c21` [Compound I-466], for which the IC50 runs as follows: under setting [1], 1000 to 3000 nM; under setting [2], 1000 to 3000 nM.

Turning to `CCN1C(=O)[C@@H](NC(=O)c2cccc(C#N)c2)[C@@H](C2CC2)c2c(C(=O)N3[C@H](C#N)C[C@H]4C[C@H]43)nn(C3CCOCC3)c21` [Compound I-698], the IC50 runs as follows: under setting [1], 200 to 1000 nM; under setting [2], 200 to 1000 nM.

For `C=C(C)S(=O)(=O)NCc1nn(-c2ccccc2)c2c1[C@H](c1ccc(F)cc1)[C@H](NC(=O)c1cccc(C(F)(F)F)c1)C(=O)N2CC` (racemic) [Compound I-54, rac-N-((4R,5R)-7-ethyl-4-(4-fluorophenyl)-3-(((1-methylvinyl)sulfonamido)methyl)-6-oxo-1-phenyl-4,5,6,7-tetrahydro-1H-pyrazolo[3,4-b]pyridin-5-yl)-3-(trifluoromethyl)benzamide], the IC50 runs as follows: under setting [1], 200 to 1000 nM; under setting [2], 200 to 1000 nM.

Regarding `C/C=C(\C)S(=O)(=O)NCc1nn(-c2ccccc2)c2c1[C@H](c1ccc(F)cc1)[C@H](NC(=O)c1cccc(C(F)(F)F)c1)C(=O)N2CC` (racemic) [Compound I-159], the IC50 under setting [1] fell in the range of 200 to 1000 nM and the IC50 under setting [2] lay within 1000 to 3000 nM.

For `CCN1C(=O)[C@@H](NC(=O)CC2=C(C)Cc3ccc(F)cc32)[C@@H](C2CC2)c2c(C(=O)N3[C@H](C#N)C[C@H]4C[C@H]43)nn(C3CCOCC3)c21` [Compound I-504], the IC50 was in the range of 1000 to 3000 nM under setting [1] and 1000 to 3000 nM under setting [2].

Consider `CCN1C(=O)[C@@H](NC(=O)c2cc(F)ccc2C(F)(F)F)[C@@H](C2CC2)c2c(C(=O)N3[C@H](C#N)C[C@H]4C[C@H]43)nn(C3CCOCC3)c21` [Compound I-623], for which the IC50 runs as follows: under setting [1], 1000 to 3000 nM; under setting [2], 1000 to 3000 nM.

On to `CCN1C(=O)[C@@H](NC(=O)c2cccc(C(F)(F)F)c2)[C@@H](c2ccc(F)cc2)c2c(NC(=O)C(C)(C)C#N)nn(-c3ccccc3)c21` (racemic) [Compound I-63], for which the IC50 under setting [1] lay within 200 to 1000 nM.

As for `CCN1C(=O)[C@@H](NC(=O)c2nc3c(s2)CN(C)CC3)[C@@H](C2CC2)c2c(C(=O)N3[C@H](C#N)C[C@H]4C[C@H]43)nn(C3CCOCC3)c21` [Compound I-512], the IC50 is 1000 to 3000 nM under setting [1] and 1000 to 3000 nM under setting [2].

With `CCN1C(=O)[C@@H](NC(=O)c2ccc(C3CC3)cc2)[C@@H](C2CC2)c2c(C(=O)N3[C@H](C#N)C[C@H]4C[C@H]43)nn(C3CCOCC3)c21` [Compound I-508], the IC50 runs as follows: under setting [1], no more than 200 nM; under setting [2], 1000 to 3000 nM.

On to `CCN1C(=O)[C@@H](NC(=O)c2cccc(C(F)(F)F)c2)[C@@H](c2ccc(F)cc2)c2c(NC(=O)C#CCN3CCOCC3)nn(-c3ccccc3)c21` (racemic) [Compound I-11, rac-N-((4R,5R)-7-ethyl-4-(4-fluorophenyl)-3-(4-morpholinobut-2-ynamido)-6-oxo-1-phenyl-4,5,6,7-tetrahydro-1H-pyrazolo[3,4-b]pyridine-5-yl)-3-(trifluoromethyl)benzamide], for which the IC50 was no more than 200 nM under setting [1] and 200 to 1000 nM under setting [2].
